In the NIST ThermoML archive (doi:10.1016/j.jct.2013.05.003):

Assay: xn = mol fraction of the nth substance listed
Settings: 101.3 kPa, Liquid, fixed-path interferometer

CCOCCCN [3-ethoxy-1-propanamine] + O
speed of sound [m/s]
Settings	283.15 K	288.15 K	293.15 K	298.15 K	303.15 K
x1 = 0.0001081	1448.8	1466.3	1483.4	1497.2	1509.6
x1 = 0.0003191	1450	1467.4	1484.5	1498	1510.4
x1 = 0.0006252	1451.8	1469.1	1486	1499.4	1511.6
x1 = 0.000707	1452.2	–	–	–	–
x1 = 0.0009424	1453.7	1470.9	1486.9	1500.9	1512.8
x1 = 0.001046	1454.2	–	–	–	–
x1 = 0.001284	1455.6	1472.6	1489.1	1502.2	1514.2
x1 = 0.001947	1459.5	1476.2	1491.7	1505.4	1516.8
x1 = 0.002912	1465.1	1481.3	1496.4	1509.6	1520.7
x1 = 0.00392	1470.9	1486.6	1501.2	1514	1524.7
x1 = 0.005098	1477.6	1492.8	1506.8	1519	1529.2
x1 = 0.007456	1491	1505	–	–	–
x1 = 0.00981	1504	1516.7	1528.6	1538.8	1547.2
x1 = 0.0148	1530.2	1540.6	1550.3	1558.4	1565
x1 = 0.01956	1554	1562.9	1569.7	1576	1580.7
x1 = 0.02832	1594.2	1599	1602.1	1604.7	1606.4
x1 = 0.03914	1636.5	1636.7	1635.3	1633.7	1631.8
x1 = 0.05082	1672.1	1668	1662.5	1657.2	1651.3
x1 = 0.06674	1704.8	1695.7	1685.7	1676.2	1666.3
x1 = 0.09536	1724	1709.3	1695.7	1681.6	1667.7
x1 = 0.1209	1715.9	1700.4	1684.2	1668.3	1653.1
x1 = 0.1452	1699.3	1682.6	1666.7	1650.2	1633.9
x1 = 0.1844	1669	1651.6	1634.3	1617.3	1600.4
x1 = 0.2121	1645.8	1627.7	1610.5	1593.4	1576.1
x1 = 0.2438	1623.7	1604.4	1587.9	1569.9	1552.3
x1 = 0.2923	1593	1575	1557.5	1539.4	1521.5
x1 = 0.361	1556.4	1535.7	1518.2	1499.2	1480.9
x1 = 0.4369	1524.2	1504.5	1485.9	1466.9	1448.1
x1 = 0.493	–	–	1461.7	1442.5	–
x1 = 0.4937	1501.5	1481	1461.8	1442.6	1423.4
x1 = 0.5513	1482.2	1461.9	1442.2	1422.7	1403.3
x1 = 0.6214	1462.5	1441.5	1421.8	1402	1382.3
x1 = 0.6775	1448.2	1426.9	1407.3	1386.7	1366.7
x1 = 0.6943	1444.5	1423.4	1402.9	1383.1	1363.1
x1 = 0.7458	1432.9	1411.3	1391.1	1370.8	1350.5
x1 = 0.7733	1427.7	–	1385.3	1365.2	1344.8
x1 = 0.7947	1422.9	1401.1	1380.6	1360.2	1339.8
x1 = 0.8276	1416.8	1395.1	1374.1	1353.6	1333.2
x1 = 0.8488	1412.3	1390.7	–	1349.3	–
x1 = 0.8744	1408.1	–	1365.1	1344.6	1324
x1 = 0.8993	1403	1381.5	1360	1339.3	1319.2
x1 = 0.9189	1399.9	1378	1356.7	1335.6	1315.1
x1 = 0.9349	–	1375	–	–	–
x1 = 0.9411	1395.9	–	1352.4	1331.8	1311.1
x1 = 0.9436	–	1373.5	–	–	–
x1 = 0.9486	1394.8	–	1351.3	1330.7	1309.8
x1 = 0.9551	–	1371.3	–	–	–
x1 = 0.9601	1392.6	1370.4	–	–	–
x1 = 0.9613	–	–	1349	1327.9	1307.3
x1 = 0.9746	–	1367.5	–	1325.7	1304.7
x1 = 0.9755	–	1367.8	–	–	–
x1 = 0.985	1391	1366.2	–	–	–
x1 = 0.9871	–	–	1344.3	1321.5	1302.4
x1 = 1	1386.4	1364.2	1342	1321.2	1300.4
